Data published in patent US12485117B2, “Compositions and methods for activating signaling through the CB1 cannabinoid receptor for treating and preventing diseases and disorders characterized by abnormal cellular accumulation of sphingolipids such as sphingomyelin” (Wylder Nation Foundation, priority 2018, dated 2025).

Legend:
wt and ASMko mice [1] = assay: Survival analysis (life span); type: in vivo, mouse
Protocol: (§1) Treatment started at 7 weeks of age and continued for 8 weeks. PF-04457845 was dissolved in 0.9% NaCl and delivered through oral gavage at a dose of 0.3 mg/kg every three days. We chose this dose based on the studies published by Ahn et al., (J Pharm Exp Ther 2011). Control groups received same volume of 0.9% NaCl without PF-04457845.
Behavioral analyses were performed in the last 2 weeks of treatment while still administering the drug. Then, half of the mice were sacrificed for biochemical and histological analysis and the other half continued receiving the treatment to monitor life span.
Seven mice per condition remained under treatment to monitor life span. While the mean survival of non-treated ASMko mice was 29 weeks, PF-04457845 treatment extended ASMko mice mean life span to 38 weeks (FIG. 19).

microglia = assay: Acute toxicity: brain inflammation by iba-1 immunofluorescence (microglia numbers); type: in vivo, mouse; settings: ASMko mice
Text: FIGS. 29A-29C show representative images of immunofluorescence against ibal, a marker for microglia, which is used as a readout for inflammation. FIGS. 29A-29C show ibal expression in hippocampus (FIG. 29A), cerebellum (FIG. 29B), and cortex (FIG. 29C), respectively, of wt and ASMko mice treated with PF-04457845 at the indicated doses or with vehicle.
(§2) We divided wt and ASMko mice of 4.5 months of age in six experimental groups: ASMko control (n=3), ASMko low dose (n=3), ASMko intermediate dose (n=3), ASMko high dose (n=3), wt control (n=3), wt high dose (n=3). PF-04457845, provided as powder, was dissolved in 0.9% NaCl and administered to mice through oral gavage. Vehicle groups received same volume of 0.9% NaCl.
Inflammation was analyzed in different brain areas (hippocampus, cerebellum and cortex) by immunofluorescence against the microglia marker iba-1. Under inflammatory conditions the number of microglia increases. Confirming high inflammation in the brain of vehicle-treated ASMko mice, microglia numbers increased compared to wt mice in all areas (FIGS. 29A-29C).

wt and ASMko mice [2] = assay: Y maze test (hippocampal dependent memory); type: in vivo, mouse; settings: 0.3 mg/kg every three days
Protocol: FIGS. 13A-13C show the effect of PF-04457845 treatment on various behavioral functions. […] (n=14; **p<0.01, *p<0.05).
as §1
Hippocampal dependent memory was monitored by the Y maze test (FIG. 13A). During the first training trial (8 min) the mice were only allowed to explore two arms (the initial arm and one other arm), maintaining the third arm (novel arm) closed. After 1 hour, the mice were placed back in the same starting arm with free access to all three arms for 5 min.
The time spent in the novel arm was counted and expressed as a percentage of the total exploration time. Non-treated ASMko mice spent less time in the novel arm than wt mice, indicative of impaired memory.

[3] = cited from earlier work
[4] = in vivo; cited from earlier work
wt and ASMko mice [5] = assay: Sphingomyelin levels by enzymatic assay in tissue extracts after 8-week treatment; type: in vivo, mouse; settings: 0.3 mg/kg every three days, 8 weeks
Protocol: as §1
Sphingomyelin levels were measured by enzymatic assays in extracts of different brain areas and in liver, spleen, and lung (FIG. 14).

wt and ASMko mice [6] = assay: Acute toxicity: H&E staining of brain and liver; type: in vivo, mouse; settings: any of the doses
Protocol: FIGS. 27A-27C show H&E staining in wt and ASMko mice treated or not treated with PF-04457845.
as §2
Brain and liver tissue was stained with H&E to evaluate histopathological features.
In the liver foam cells showing white vacuoles indicative of lipid accumulation were evident in vehicle treated ASMko mice compared to wt (FIG. 28).

anandamide levels = assay: Anandamide levels by mass spectrometry in the hippocampus; type: in vivo, mouse; settings: 0.3 mg/kg every three days
Protocol: FIGS. 18A-18B show hippocampal anandamide and CB1 levels in wt and ASMko mice treated or not treated with PF-04457845. […] Graphs show mean±SEM CB1 intensity in arbitrary units (n=5, *p<0.05).
as §1
PF-04457845 inhibits the enzyme (FAAH) that hydrolyzes the endocannabinoid anandamide, which in turn activates the CB1 receptor leading to neutral sphingomyelinase activation and sphingomyelin hydrolysis. To determine the effects of PF-04457845 treatment in the endocannabinoid system we analyzed anandamide and CB1 levels in the brain of PF-04457845 treated and non-treated mice.

ASMko cultured neurons [7] = assay: MAP2 immunofluorescence of dendrites in ASMko cultured neurons; type: cell-based, mouse; settings: 50 μM for 1 hour
macrophages = assay: Acute toxicity: liver inflammation by F4/80 immunofluorescence (macrophage cell area); type: in vivo, mouse; settings: ASMko mice
Protocol: as §2
Inflammation was analyzed in the liver by immunofluorescence against the macrophage marker F4/80. Under inflammatory conditions macrophages acquire an amoeboid shape indicative of maximal activation.

ASMko cultured neurons [8] = assay: TUNEL assay of neuronal death in ASMko cultured neurons; type: cell-based, mouse; settings: 50 μM for 1 hour
Protocol: FIG. 10B is a graph showing mean±SEM percentage of apoptotic cells, measured by TUNEL assay, with respect to the positive control in which the cells were treated with H202.
The percentage of dying neurons showing DNA fragmentation was 5-8% in the treated ASMko cultures similar to the non-treated ones.

With O=C(Nc1cccnn1)N1CCC(=Cc2cccc(Oc3ccc(C(F)(F)F)cn3)c2)CC1 [PF-04457845] as the molecule, how does the lifespan extended (wt and ASMko mice [1]; ASMko mice) read?
Its lifespan extended is 31%.

What about the mean life span (wt and ASMko mice [1]; ASMko mice, continued treatment 0.3 mg/kg every three days) of the same molecule?
Its mean life span is 38 weeks.

And the survival (wt and ASMko mice [1]; wildtype mice)?
The survival was “did not affect”.

What about the “microglia numbers in hippocampus, cerebellum and cortex” value (from here on “microglia numbers in hippocampus”) (microglia; single dose 0.1 mg/kg) of the same molecule?
Its value is “did not significantly alter microglia numbers”.

What about the “microglia numbers in hippocampus” value (microglia; single dose 1 mg/kg) of the same molecule?
Its value is “remarkably reduced microglia numbers to levels similar to wt mice”.

What about the “microglia numbers in hippocampus” value (microglia; single dose 5 mg/kg) of the same molecule?
Its value is “remarkably reduced microglia numbers to levels similar to wt mice”.

What about the “time in the novel arm of Y maze (memory)” value (wt and ASMko mice [2]; ASMko mice) of the same molecule?
Its value is “restored memory function”.

And the “time in the novel arm of Y maze, treated versus non-treated” value (wt and ASMko mice [2]; wt mice)?
The value was “No differences”.

What about the “doses that seem to be safe in rodents” value ([3]; Ahn et al., 2011) of the same molecule?
Its value is “up to 10 mg/kg”.

What about the selectivity ([3]; Ahn et al., J Pharm Exp Ther 2011) of the same molecule?
The selectivity was “exceptional selectivity”.

What about the “duration of action in vivo” value ([3]; rodents, Ahn et al. 2011) of the same molecule?
Its value is “long duration of action”.

And the pharmacokinetic properties ([3]; rodents, Ahn et al. 2011)?
Its pharmacokinetic properties is “optimal pharmacokinetic properties”.

What about the “brain blood barrier crossing” value [4] of the same molecule?
The value was “can cross the brain blood barrier”.

What about the “sphingomyelin levels in cerebellum” value (wt and ASMko mice [5]; ASMko mice) of the same molecule?
Its value is “significant reduction of sphingomyelin”.

And the “sphingomyelin levels in cortex” value (wt and ASMko mice [5]; ASMko mice)?
The value was “significant reduction of sphingomyelin”.

And the “sphingomyelin levels in hippocampus” value (wt and ASMko mice [5]; ASMko mice)?
Its value is “significant reduction of sphingomyelin”.

What about the “sphingomyelin levels in liver” value (wt and ASMko mice [5]; ASMko mice) of the same molecule?
The value was “significant reduction of sphingomyelin”.

What about the “sphingomyelin levels in lung” value (wt and ASMko mice [5]; ASMko mice) of the same molecule?
Its value is “non-statistically significant trend towards a decrease”.

And the “sphingomyelin levels in spleen” value (wt and ASMko mice [5]; ASMko mice)?
Its value is “significant reduction of sphingomyelin”.

And the “sphingomyelin levels in tissues” value (wt and ASMko mice [5]; wt mice)?
Its value is “did not alter sphingomyelin levels”.

And the “H&E staining of liver (foam cell pattern)” value (wt and ASMko mice [6]; ASMko mice)?
Its value is “did not significantly alter this pattern”.

What about the “H&E staining of hippocampus, cerebellum and cortex” value (wt and ASMko mice [6]; wt and ASMko mice) of the same molecule?
The value was “did not cause significant changes in H&E staining”.

What about the “increase of anandamide levels in the hippocampus” value (anandamide levels; ASMko mice) of the same molecule?
Its value is 1.96 fold.

And the “increase of anandamide levels in the hippocampus” value (anandamide levels; wt mice)?
The value was 2.09 fold.

And the “morphology, length, appearance of dendrites (MAP2)” value (ASMko cultured neurons [7])?
Its value is “did not alter the morphology, length or homogeneous appearance of dendrites”.

What about the “liver macrophage amoeboid morphology / cell area” value (macrophages; single dose 0.1 mg/kg) of the same molecule?
The value was “did not significantly alter macrophage amoeboid morphology”.

What about the “liver macrophage cell area” value (macrophages; single dose 1 mg/kg) of the same molecule?
Its value is “remarkably reduced macrophage cell area to levels similar to wt mice”.

What about the “liver macrophage cell area” value (macrophages; single dose 5 mg/kg) of the same molecule?
The value was “remarkably reduced macrophage cell area to levels similar to wt mice”.

What about the “neuronal death as assessed by TUNEL” value (ASMko cultured neurons [8]) of the same molecule?
The value was “did not induce neuronal death”.
